Test systems include OVCAR-3; OVCAR-8; SF-268; SK-MEL-28; MDA-MB-231; A549; M14; RXF 393; CCRF-CEM; SR; RPMI-8226; MOLT-4; NCI/ADR-RES; MDA-N; LOX IMVI; COLO 205; A498; Hs-578T.
Common to all, as to assay: NCI tumour cell line growth inhibition, 48 h

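Results reflect a 48-hour exposure of cells in 96-well plates to compound at five concentrations. GI50: concentration for 50% inhibition of growth.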 The source made the active and inactive calls. Rule as the data show it: active = GI50 up to about 1.1 µM and inactive = higher.

Consider `CCC(C)N1CN(c2ccccc2)C2(CCN(CCCSc3ccc(F)cc3)CC2)C1=O` (stereo not drawn), for which the GI50 is 2.33 µM (inactive) in the experiment on OVCAR-3; 6.17 µM (inactive) in the experiment with OVCAR-8; 6.75 µM (inactive) in the experiment with SF-268; 11.6 µM (inactive) in the experiment on SK-MEL-28; 0.296 µM (active) with MDA-MB-231; 3.94 µM (inactive) in the experiment on A549. Moreover, the GI50 in the experiment with M14 was 2.34 µM (inactive); in the experiment with RXF 393 it was 2.84 µM (inactive); with CCRF-CEM, 2.44 µM (inactive); with SR, 3.32 µM (inactive); with RPMI-8226, 2.31 µM (inactive); in the experiment with MOLT-4, 3 µM (inactive). Further, the GI50 in the experiment on NCI/ADR-RES is 3.05 µM (inactive); in the experiment with MDA-N, 2.9 µM (inactive); in the experiment on LOX IMVI, 3.05 µM (inactive); in the experiment with COLO 205, 1.72 µM (inactive).

Regarding `COc1cc(Br)c(OC)c2c(OC)cc(C)cc12`, the GI50 in the experiment on OVCAR-3 is > 100 µM (inactive); in the experiment with A498 it was > 100 µM (inactive); with OVCAR-8, > 100 µM (inactive); in the experiment with SF-268, > 100 µM (inactive); in the experiment with SK-MEL-28, > 100 µM (inactive); with MDA-MB-231, 89.9 µM (inactive). Moreover, the GI50 in the experiment with M14 was 64.7 µM (inactive); in the experiment with RXF 393, 50.1 µM (inactive); in the experiment on CCRF-CEM it was 42.5 µM (inactive); in the experiment with SR it was 0.731 µM (active); with RPMI-8226 it was 54.5 µM (inactive); in the experiment with MOLT-4 it was 20 µM (inactive). The GI50 in the experiment with NCI/ADR-RES is > 100 µM (inactive); in the experiment with Hs-578T it was 52 µM (inactive); in the experiment on LOX IMVI, > 100 µM (inactive); with COLO 205, > 100 µM (inactive).

Turning to `Cc1c(/C=N\NC(=S)N(C)CCN(C)C(=S)N/N=C\c2c(C)n(C)n(-c3ccccc3)c2=O)c(=O)n(-c2ccccc2)n1C`, the GI50 with OVCAR-3, in the experiment with A498, in the experiment with SF-268, with MDA-MB-231, with A549 and with M14 was > 100 µM (inactive) each time. For the same compound, the GI50 in the experiment with RXF 393 is > 100 µM (inactive); with SR, 35.3 µM (inactive); in the experiment with MOLT-4 it was > 100 µM (inactive); with NCI/ADR-RES, > 100 µM (inactive); in the experiment on Hs-578T, > 100 µM (inactive); in the experiment with COLO 205 it was > 100 µM (inactive).

With `O=C(CNc1cccc([N+](=O)[O-])c1)Nn1c(-c2ccccc2)nc2ccccc2c1=O`, the GI50 in the experiment with OVCAR-3 is 2.38 µM (inactive); with A498, 0.0112 µM (active); in the experiment with OVCAR-8 it was 1.59 µM (inactive); with SF-268, 1.69 µM (inactive); in the experiment with SK-MEL-28 it was 0.513 µM (active); in the experiment on MDA-MB-231 it was 0.776 µM (active). The GI50 with A549 was 1.74 µM (inactive); in the experiment with RXF 393, 0.37 µM (active); in the experiment with CCRF-CEM it was 0.316 µM (active); with SR it was 0.271 µM (active); in the experiment with RPMI-8226, 0.478 µM (active); with MOLT-4, 0.246 µM (active). Moreover, the GI50 is 0.282 µM (active) with NCI/ADR-RES, 0.581 µM (active) in the experiment on Hs-578T, 0.221 µM (active) with LOX IMVI and 1.43 µM (inactive) with COLO 205.

For the compound `c1ccc(CSc2nc(N3CCCCC3)c3cn[nH]c3n2)cc1`, the GI50 in the experiment with OVCAR-3 is 24.5 µM (inactive); in the experiment on A498, 15.6 µM (inactive); in the experiment with OVCAR-8, 23.4 µM (inactive); in the experiment on SF-268, 23.8 µM (inactive); in the experiment with SK-MEL-28, 19.9 µM (inactive); in the experiment on MDA-MB-231 it was 16.3 µM (inactive). For the same compound, the GI50 is 27.4 µM (inactive) in the experiment on A549; 19.8 µM (inactive) in the experiment with M14; 16.1 µM (inactive) with RXF 393; 44 µM (inactive) with CCRF-CEM; 25.3 µM (inactive) in the experiment on SR; 26.6 µM (inactive) in the experiment with RPMI-8226. Further, the GI50 was 49.1 µM (inactive) in the experiment on MOLT-4; 61.2 µM (inactive) in the experiment on NCI/ADR-RES; 17.3 µM (inactive) in the experiment with Hs-578T; 21 µM (inactive) in the experiment on LOX IMVI; 23 µM (inactive) in the experiment on COLO 205.

`COC[C@H](Cc1ccccc1)/N=C/c1ccccc1`: the GI50 with OVCAR-8, with SF-268, with SK-MEL-28, in the experiment on A549, in the experiment on M14 and in the experiment on RXF 393 was > 100 µM (inactive) throughout. The GI50 in the experiment with CCRF-CEM, in the experiment with SR, in the experiment on RPMI-8226, in the experiment on MOLT-4, with NCI/ADR-RES and in the experiment on Hs-578T was > 100 µM (inactive) each time. Also, the GI50 in the experiment on LOX IMVI and in the experiment with COLO 205 was > 100 µM (inactive) each time.

As to `CCCNc1c(Cl)cc(Cl)c2[nH]c3ccccc3c(=O)c12`, the GI50 is 48.2 µM (inactive) in the experiment with OVCAR-3; 29.7 µM (inactive) in the experiment on A498; 40.3 µM (inactive) with OVCAR-8; > 100 µM (inactive) in the experiment with SK-MEL-28; 77.1 µM (inactive) with MDA-MB-231; 35.1 µM (inactive) in the experiment on A549. Besides, the GI50 in the experiment with M14 is 55.7 µM (inactive); in the experiment with CCRF-CEM, 49.3 µM (inactive); in the experiment with SR, 58.3 µM (inactive); in the experiment on RPMI-8226 it was 30.8 µM (inactive); in the experiment with MOLT-4, 32.5 µM (inactive); with NCI/ADR-RES it was > 100 µM (inactive). Further, the values for the GI50 in the experiment on MDA-N, in the experiment on LOX IMVI and with COLO 205 were 50.6 µM (inactive), 33.7 µM (inactive) and 42 µM (inactive), respectively.

With `CC1N[B@@-](C)(c2ccc(C(F)(F)F)cc2)OC1c1ccccc1` (stereo partly drawn), the GI50 with OVCAR-3 is 57.8 µM (inactive); in the experiment with A498, 58.9 µM (inactive); in the experiment with OVCAR-8, > 100 µM (inactive); with SF-268, > 100 µM (inactive); in the experiment on SK-MEL-28 it was > 100 µM (inactive); in the experiment with MDA-MB-231, > 100 µM (inactive). In addition, the GI50 with A549 is > 100 µM (inactive); in the experiment on M14, > 100 µM (inactive); in the experiment on CCRF-CEM, 42.6 µM (inactive); in the experiment on SR, 31.3 µM (inactive); in the experiment on RPMI-8226, 34.7 µM (inactive); with MOLT-4, 29.9 µM (inactive). Further, the GI50 with NCI/ADR-RES is > 100 µM (inactive); in the experiment on MDA-N, > 100 µM (inactive); in the experiment on LOX IMVI, 98.2 µM (inactive); in the experiment with COLO 205 it was > 100 µM (inactive).

Take `CC(=O)[C@@H]1[C@@H](OC(=O)CCC(C)COC2OC(CO)C(O)C(O)C2O)C[C@H]2[C@@H]3CC=C4C[C@@H](OC5OC(CO)C(OC6OC(C)C(O)C(O)C6O)C(O)C5OC5OC(C)C(O)C(O)C5O)CC[C@]4(C)[C@H]3CC[C@]12C` (stereo partly drawn): the GI50 with OVCAR-3, in the experiment with A498, in the experiment on OVCAR-8, with SF-268, with SK-MEL-28 and in the experiment with MDA-MB-231 was > 100 µM (inactive) each time. Besides, the GI50 in the experiment with A549, with M14, in the experiment on RXF 393, with CCRF-CEM, with SR and with RPMI-8226 was > 100 µM (inactive) throughout. Also, the GI50 with MOLT-4, in the experiment with MDA-N, in the experiment with LOX IMVI and in the experiment with COLO 205 was > 100 µM (inactive) in each case.

The values above are taken from ChEMBL document CHEMBL1201862, “PubChem BioAssay data set” (2004).
